Biological target: Factor D (Homo sapiens (Human), UniProt P00746)
Assay: biochemical
Format: biochemical
Conditions: read-out: IC50

Factor D, sequence (P00746 26-253): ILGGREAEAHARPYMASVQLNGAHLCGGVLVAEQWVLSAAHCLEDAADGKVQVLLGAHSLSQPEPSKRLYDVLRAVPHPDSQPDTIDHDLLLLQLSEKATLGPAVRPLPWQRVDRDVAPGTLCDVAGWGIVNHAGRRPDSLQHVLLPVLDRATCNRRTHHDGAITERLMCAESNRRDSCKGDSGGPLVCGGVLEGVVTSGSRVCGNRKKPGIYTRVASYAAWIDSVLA

SMILES	IC50 [nM]
NC(=O)n1cc(NC(=O)N2C[C@H](F)C[C@H]2C(=O)NCc2cc(C(=O)O)cc(Cl)c2F)c2ccccc21 [Example 144, 3-({[(2S,4R)-1-(1-carbamoyl-1H-indol-3-ylcarbamoyl)-4-fluoro-pyrrolidine-2-carbonyl]-amino}-methyl)-5-chloro-4-fluoro-benzoic acid]	15
NC(=O)n1cc(NC(=O)N2CC=C[C@H]2C(=O)Nc2cccc(OC(F)(F)F)c2)c2ccccc21 [Example 145, (S)-2,5-Dihydro-pyrrole-1,2-dicarboxylic acid 1-[(1-carbamoyl-1H-indol-3-yl)-amide] 2-[(3-trifluoromethoxy-phenyl)-amide]]	300
NC(=O)n1cc(NC(=O)N2CC3O[C@@H]3[C@H]2C(=O)NCc2cccc(Cl)c2F)c2ccccc21 (stereo partly drawn) [Example 146, (1R,2S,5S)-6-Oxa-3-aza-bicyclo[3.1.0]hexane-2,3-dicarboxylic acid 3-[(1-carbamoyl-1H-indol-3-yl)-amide] 2-(3-chloro-2-fluoro-benzylamide)]	9
NC(=O)n1cc(NC(=O)N2C[C@@H](C(F)(F)F)C[C@H]2C(=O)NCc2cccc(Cl)c2F)c2ccccc21 [Example 147, (2S,4S)-4-Trifluoromethyl-pyrrolidine-1,2-dicarboxylic acid 1-[(1-carbamoyl-1H-indol-3-yl)-amide] 2-(3-chloro-2-fluoro-benzylamide)]	120
NC(=O)n1cc(NC(=O)N2CC[C@@H]3C[C@@]32C(=O)NCc2cccc(Cl)c2F)c2ccccc21 [Example 149, (1S,5R)-2-Aza-bicyclo[3.1.0]hexane-1,2-dicarboxylic acid 2-[(1-carbamoyl-1H-indol-3-yl)-amide] 1-(3-chloro-2-fluoro-benzylamide)]	10800
CC1(C)SC[C@@H](C(=O)Nc2cccc(OC(F)(F)F)c2)N1C(=O)Nc1cn(C(N)=O)c2ccccc12 [Example 151, (R)-2,2-Dimethyl-thiazolidine-3,4-dicarboxylic acid 3-[(1-carbamoyl-1H-indol-3-yl)-amide] 4-[(3-trifluoromethoxy-phenyl)-amide]]	9320
N#Cc1ccc(-c2cccc(NC(=O)[C@@H]3CCCN3C(=O)Nc3cn(C(N)=O)c4ccccc34)c2)cc1 [Example 152, (S)-pyrrolidine-1,2-dicarboxylic acid 1-[(1-carbamoyl-1H-indol-3-yl)amide]2-[(4′-cyano-biphenyl-3-yl)-amide]]	4400
COC(=O)c1cc(Br)cc(NC(=O)[C@@H]2C[C@@H](F)CN2C(=O)Nc2cn(C(N)=O)c3ccccc23)c1 [Example 153, 3-Bromo-5-{[(2S,4R)-1-(1-carbamoyl-1H-indol-3-ylcarbamoyl)-4-fluoro-pyrrolidine-2-carbamoyl]-amino}-benzoic acid methyl ester]	55
CN(C)CCNC(=O)c1cc(Cl)c(F)c(CNC(=O)[C@@H]2C[C@@H](F)CN2C(=O)Nc2cn(C(N)=O)c3ccccc23)c1 [Example 154, (2S,4R)-4-Fluoro-pyrrolidine-1,2-dicarboxylic acid 1-[(1-carbamoyl-1H-indol-3-yl)-amide] 2-[3-chloro-5-(2-dimethylamino-ethyl-carbamoyl)-2-fluoro-benzylamide]]	1370
NC(=O)n1cc(NC(=O)N2C3CC3C[C@H]2C(=O)NCc2ccc(Cl)s2)c2ccccc21 (stereo partly drawn) [Example 155, (1R,3S,5R)-2-Aza-bicyclo[3.1.0]hexane-2,3-dicarboxylic acid 2-[(1-carbamoyl-1H-indol-3-yl)-amide] 3-[(5-chloro-thiophen-2-ylmethyl)-amide]]	20
COC(=O)c1ccc(NC(=O)[C@@H]2C[C@@H](F)CN2C(=O)Nc2cn(C(N)=O)c3ccccc23)cc1Br [Example 156, 2-Bromo-4-{[(2S,4R)-1-(1-carbamoyl-1H-indol-3-ylcarbamoyl)-4-fluoro-pyrrolidine-2-carbonyl]-amino}-benzoic acid methyl ester]	150
CCc1cccc(NC(=O)[C@@H]2CC3CC3N2C(=O)Nc2cn(C(N)=O)c3ccccc23)n1 (stereo partly drawn) [Example 158, (1R,3S,5R)-2-Aza-bicyclo[3.1.0]hexane-2,3-dicarboxylic acid 2-[(1-carbamoyl-1H-indol-3-yl)-amide] 3-[(6-ethyl-pyridin-2-yl)-amide]]	80
NC(=O)n1cc(NC(=O)N2C[C@H](F)C[C@H]2C(=O)Nc2cc(Br)cc(C(=O)O)c2)c2ccccc21 [Example 159, 3-bromo-5-{[(2S,4R)-1-(1-carbamoyl-1H-indol-3-ylcarbamoyl)-4-fluoro-pyrrolidine-2-carbonyl]-amino}-benzoic acid]	55
CC(C)(C)c1csc(NC(=O)[C@@H]2CCCN2C(=O)Nc2cn(C(N)=O)c3ccccc23)n1 [Example 160, (S)-Pyrrolidine-1,2-dicarboxylic acid 2-[(4-tert-butyl-thiazol-2-yl)-amide] 1-[(1-carbamoyl-1H-indol-3-yl)-amide]]	1400
NC(=O)n1cc(NC(=O)N2CSC[C@H]2C(=O)Nc2cccc(OC(F)(F)F)c2)c2ccccc21 [Example 161, (R)-Thiazolidine-3,4-dicarboxylic acid 3-[(1-carbamoyl-1H-indol-3-yl)-amide] 4-[(3-trifluoromethoxy-phenyl)-amide]]	987
COCCOc1ccc2c(c1)c(NC(=O)N1C3CC3C[C@H]1C(=O)NCc1cccc(Cl)c1F)cn2C(N)=O (stereo partly drawn) [Example 162, (1R,3S,5R)-2-Aza-bicyclo[3.1.0]hexane-2,3-dicarboxylic acid 2-{[1-carbamoyl-5-(2-methoxy-ethoxy)-1H-indol-3-yl]-amide} 3-(3-chloro-2-fluoro-benzylamide)]	5
CCc1cccc(NC(=O)[C@@H]2C[C@@H](F)CN2C(=O)Nc2cn(C(N)=O)c3ccccc23)n1 [Example 163, (2S,4R)-4-Fluoro-pyrrolidine-1,2-dicarboxylic acid 1-[(1-carbamoyl-1H-indol-3-yl)-amide] 2-[(6-ethyl-pyridin-2-yl)-amide]]	100
C[C@]1(O)C[C@@H](C(=O)NCc2cccc(Cl)c2F)N(C(=O)Nc2cn(C(N)=O)c3ccccc23)C1 [Example 164, (2S,4S)-4-Hydroxy-4-methyl-pyrrolidine-1,2-dicarboxylic acid 1-[(1-carbamoyl-1H-indol-3-yl)-amide] 2-(3-chloro-2-fluoro-benzylamide)]	400
Cc1ncc(NC(=O)[C@@H]2C[C@@H](F)CN2C(=O)Nc2cn(C(N)=O)c3ccccc23)cc1Br [Example 165, (2S,4R)-4-Fluoro-pyrrolidine-1,2-dicarboxylic acid 1-[(1-carbamoyl-1H-indol-3-yl)-amide] 2-[(5-bromo-4-methyl-pyridin-3-yl)-amide]]	140
NC(=O)n1cc(NC(=O)N2C3CC3C[C@H]2C(=O)NCc2cccc(Cl)c2F)c2ccccc21 (stereo partly drawn) [Example 166, (1R,3S,5R)-2-Aza-bicyclo[3.1.0]hexane-2,3-dicarboxylic acid 2-[(1-carbamoyl-1H-indol-3-yl)-amide] 3-(3-chloro-2-fluoro-benzylamide)]	3
Cc1ncc(Br)cc1NC(=O)[C@@H]1C[C@@H](F)CN1C(=O)Nc1cn(C(N)=O)c2ccccc12 [Example 168, (2S,4R)-4-Fluoro-pyrrolidine-1,2-dicarboxylic acid 2-[(5-bromo-2-methyl-pyridin-3-yl)-amide] 1-[(1-carbamoyl-1H-indol-3-yl)-amide]]	250

From patent publication US9085555B2, “Complement pathway modulators and uses thereof” (priority 2011, dated 2015)
